{
  "source": "patent US20250146007A1",
  "about": "(priority 2022, published 2025)",
  "key": {"C. acnes tdk knock-out": {"test_system": "C. acnes tdk knock-out", "format": "cell-based, Cutibacterium acnes"}, "[1]": {"test_system": "Neutrophil gelatinase-associated lipocalin 2 (NGAL) protein", "settings": "human, in vivo; cited from earlier work"}, "PCi-SEB_Cau sebocytes": {"test_system": "PCi-SEB_Cau sebocytes", "format": "cell-based, human"}},
  "note": "Entries after “also recorded” stand apart in the source; their conditions may differ.",
  "data": [
    {"smiles": "O=c1[nH]c(=O)n([C@H]2C[C@H](O)[C@@H](CO)O2)cc1F", "note": "[FUDR, 5-fluoro-2′-deoxyuridine]", "values": [
      {"measurement": "growth of tdk knock-out (knock-in) strain on FUDR plates", "setting": "C. acnes tdk knock-out", "value": "could grow; also recorded: no growth inhibiting effect"}
    ]},
    {"smiles": "CC[C@H]1OC(=O)[C@H](C)[C@@H](O[C@H]2C[C@@](C)(OC)[C@@H](O)[C@H](C)O2)[C@H](C)[C@@H](O[C@@H]2O[C@H](C)C[C@H](N(C)C)[C@H]2O)[C@](C)(O)C[C@@H](C)C(=O)[C@H](C)[C@@H](O)[C@]1(C)O", "note": "[ery, erythromycin]", "values": [
      {"measurement": "growth of tdk knock-out (knock-in, ermE) strain on erythromycin plates", "setting": "C. acnes tdk knock-out", "value": "could grow"}
    ]},
    {"smiles": "CC1=C(/C=C/C(C)=C/C=C/C(C)=C\\C(=O)O)C(C)(C)CCC1", "note": "[isotretinoin, 13-cis retinoic acid]", "values": [
      {"measurement": "increase in NGAL protein in treated patients", "setting": "[1]", "value": 7, "unit": "fold"},
      {"measurement": "decrease in sebum production compared to AA treated cells", "setting": "PCi-SEB_Cau sebocytes", "value": 1.8, "unit": "fold"}
    ]}
  ]
}
